Measurements published in patent US8512752B2, “Hyaluronic acid derivatives obtained via “click chemistry” crosslinking” (Fidia Farmaceutici S.p.A., priority 2006, dated 2013).
Structures can show the parent of a compound that is named as a salt.

Assays:
Type in all cases: physicochemical
[1] = release of benzydamine hydrochloride from hydrogel of hyaluronic acid with 1,6-Heptadiyne; conditions: hydrogel of HA (product 1) with 1,6-heptadiyne, catalytic CuSO4.5H2O and ascorbic acid, Example 13; release in 100 ml distilled water
Description: (§1) 100 mg of product 1 are dissolved in 1.1 ml of distilled water; a solution of 140 μl of 1,6-Heptadiyne in 9.86 ml of DMSO are prepared separately, whereas 13.8 mg of benzydamine hydrochloride are dissolved in 0.5 ml of distilled water. The solution of hyaluronic acid is mixed with that of benzydamine and with 0.2 ml of that of 1,6-Heptadiyne; 0.1 ml of an aqueous solution obtained with 50 mg of CuSO4.5H2O in 1 ml of H2O and 0.1 mL of an aqueous solution of 20 mg of ascorbic acid are then added. The mixture is stirred vortically for a few minutes. The rapidly formed gel incorporates the benzydamine hydrochloride inside.
(§2) The quantity of benzydamine hydrochloride released from the hydrogel, in 100 ml of distilled water, is determined by means of U.V. spectrophotometric measurements at λ=308 nm by interpolation of the absorbance values on a calibration line constructed using solutions of the drug at known concentration.

[2] = release of benzydamine hydrochloride from hydrogel of crosslinked hyaluronic acid obtained with catalytic CuCl; conditions: hydrogel of HA (product 1 + product 2) crosslinked with catalytic CuCl, Example 11; release in 100 ml phosphate buffer solution pH=7.4
Description: 69 mg of benzydamine hydrochloride are dissolved in 2 ml of water and 50 mg of product 1 and 50 mg of product 2 synthesized as described above, are then added.
830 μL of a 1% w/V solution of CuCl are subsequently added to the solution and the gel is formed after a few minutes directly incorporating the drug.
The quantity of benzydamine hydrochloride released from the hydrogel, in 100 ml of a phosphate buffer solution pH=7.4, is determined by means of U.V. spectrophotometric measurements at λ=308 nm by interpolation of the absorbance values on a calibration line constructed using solutions of the drug at a known concentration.
(§3) The release measurements of the drug are performed on the hydrogel described above.

[3] = release of benzydamine hydrochloride from hydrogel of crosslinked hyaluronic acid obtained with catalytic CuSO4.5H2O; conditions: hydrogel of HA (product 1 + product 2) crosslinked with catalytic CuSO4.5H2O and ascorbic acid, Example 11; release in 100 ml distilled water
Description: 50 mg of product 1 and 50 mg of product 2 are dissolved in 1.3 ml of distilled water and separately 13.8 mg of benzydamine hydrochloride are dissolved in 0.5 ml of distilled water. The solution of hyaluronic acid is mixed with that of benzydamine hydrochloride; 0.1 ml of an aqueous solution obtained with 50 mg of CuSO4.5H2O in 1 ml of H2O and 0.1 ml of an aqueous solution of 20 mg of ascorbic acid are then added.
The mixture is stirred vortically for a few minutes. The rapidly formed gel incorporates the benzydamine hydrochloride inside.
as §2, §3

[4] = release of doxorubicin hydrochloride from hydrogel of hyaluronic acid with 1,6-heptadiyne; conditions: hydrogel of HA (product 1) with 1,6-heptadiyne, catalytic CuSO4.5H2O and ascorbic acid, Example 13; release in 100 ml distilled water
Description: as §1, with “23.2” for “13.8”, “doxorubicin” for “benzydamine”, “ml” for “mL”, “gel (see FIG. 28)” for “gel”
(§4) The quantity of doxorubicin hydrochloride released from the hydrogel, in 100 ml of distilled water, is determined by means of U.V. spectrophotometric measurements at λ=486 nm by interpolation of the absorbance values on a calibration line constructed using solutions of the drug at known concentration.

[5] = release of doxorubicin hydrochloride from hydrogel of hyaluronic acid with 1,4-diethynylbenzene; conditions: hydrogel of HA (product 1) with 1,4-diethynylbenzene, catalytic CuSO4.5H2O and ascorbic acid, Example 13; release in 100 ml distilled water
Description: 100 mg of product 1 are dissolved in 1.1 ml of distilled water and 3 mg of 1,4-Diethynylbenzene are dissolved separately in 0.2 ml of DMSO, whereas 23.2 mg of doxorubicin hydrochloride are dissolved in 0.5 ml of distilled water. The three solutions are mixed, 0.1 ml of an aqueous solution obtained with 50 mg of CuSO4.5H2O in 1 ml of H2O and 0.1 ml of an aqueous solution of 20 mg of ascorbic acid are then added. The mixture is stirred vortically for a few minutes. The rapidly formed gel (see FIG. 26) incorporates the doxorubicin hydrochloride inside.
as §4
The release measurements of the drug are effected on the hydrogel described above.

[6] = release of doxorubicin hydrochloride from hydrogel of crosslinked hyaluronic acid obtained with catalytic CuCl; conditions: hydrogel of HA (product 1 + product 2) crosslinked with catalytic CuCl, Example 11; release in 100 ml distilled water
Description: 29 mg of doxorubicin hydrochloride are dissolved in 2 ml of water and 50 mg of product 1 and 50 mg of product 2 synthesized as described above, are then added. 830 μL of a 1% w/V solution of CuCl are subsequently added to the solution and the gel is formed after a few minutes directly incorporating the drug present in solution.
The quantity of doxorubicin hydrochloride released from the hydrogel in 100 ml of distilled water, is determined by U.V. spectrophotometric measurements at λ=486 nm by interpolation of the absorbance values on a calibration line constructed using solutions of the drug at known concentration.
as §3

[7] = release of doxorubicin hydrochloride from hydrogel of hyaluronic acid with 1,8-Nonadiyne; conditions: hydrogel of HA (product 1) with 1,8-Nonadiyne, catalytic CuSO4.5H2O and ascorbic acid, Example 13; release in 100 ml distilled water
Description: 100 mg of product 1 are dissolved in 1.1 ml of distilled water; a solution of 200 μl of 1,8-Nonadiyne in 11.23 ml of DMSO are prepared separately, whereas 23.2 mg of doxorubicin hydrochloride are dissolved in 0.5 ml of distilled water. The solution of hyaluronic acid is mixed with that of doxorubicin and with 0.2 ml of that of 1,8-Nonadiyne; 0.1 ml of an aqueous solution obtained with 50 mg of CuSO4.5H2O in 1 ml of H2O and 0.1 ml of an aqueous solution of 20 mg of ascorbic acid are then added. The mixture is stirred vortically for a few minutes. The rapidly formed gel (see FIG. 31) incorporates the doxorubicin hydrochloride inside.
as §4, §3

CN(C)CCCOc1nn(Cc2ccccc2)c2ccccc12 [benzydamine hydrochloride]
maximum quantity released, of the quantity of drug initially incorporated in the gel [1]: 80% | period over which the maximum quantity of drug is released [1]: about 6 h | maximum quantity released, of the quantity of drug initially incorporated in the gel [2]: 88% | period over which the maximum quantity of drug is released [2]: about 3.5 h | maximum quantity released, of the quantity of drug initially incorporated in the gel [3]: 70% | period over which the maximum quantity of drug is released [3]: about 5 h

COc1cccc2c1C(=O)c1c(O)c3c(c(O)c1C2=O)C[C@@](O)(C(=O)CO)C[C@@H]3O[C@H]1C[C@H](N)[C@H](O)[C@H](C)O1 [doxorubicin hydrochloride]
maximum quantity released, of the quantity of drug initially incorporated in the gel [4]: 23% | period over which the maximum quantity of drug is released [4]: about 250 h | maximum quantity released, of the quantity of drug initially incorporated in the gel [5]: 50% | period over which the maximum quantity of drug is released [5]: about 50 h | maximum quantity released, of the quantity of drug initially incorporated in the gel [6]: 25% | period over which the maximum quantity of drug is released [6]: about 160 h | maximum quantity released, of the quantity of drug initially incorporated in the gel [7]: 14% | period over which the maximum quantity of drug is released [7]: about 100 h
